Test results: paper PMC10811509 (Advanced Science, 2023)
No end group written: not given here.

Tests used:
Aβ40 = target: T1, Aβ40 (Homo sapiens, UniProt P05067); experiment: ITC, APP‐C31 binding to Aβ40; conditions: read-out: binding affinity (Kd)
T1 construct: purchased Peptide Institute, Inc. (Osaka, Japan) or Anaspec (Fremont, CA, USA)
Method: Titration experiments composed of 28 injections were conducted. The injection volume was 2 µL for the first injection to minimize effects of bubbles and 10 µL for the remaining injections. […] The initial delay was 1800 s and the reference power was 10 µcal s^−1. […] The binding isotherms after baseline correction were fitted to the one set of sites binding model incorporated in the MicroCal Origin 7.0 software.^[ [84] ^]
Figure S10. Interaction of Ab40 with APP-C31 monitored by ITC. The ITC thermogram (upper panel) and binding isotherm (lower panel) were obtained upon titration of APP-C31 into Ab40. The Kd value was calculated from three independent measurements. Conditions: [Ab40] = 30 µM; [APP-C31] = 600 µM; 20

[1] = test system: Aβ in hippocampi of C57BL/6J mice; experiment: Immunohistochemistry of hippocampus after stereotaxic peptide injection, Aβ (6E10, thioflavin‐S); type: in vivo, mouse; conditions: hippocampal injection of Aβ40 (100 µM) and APP‐C31 (200 µM), 1 µL; 10 days; n = 3
SH‐SY5Y cells [2] = experiment: Annexin V staining (apoptosis) after microinjection; conditions: 24 h; for Pearson's coefficient (r), annexin V / Texas Red‐labeled dextran: n = 3–5
Method: (§1) Cell survival measurements were described in detail in the experimental section. […] White arrows indicate apoptotic cells microinjected with peptide samples. […] Scale bar = 100 µm.
After 24 h incubation, the cells were washed with annexin‐binding buffer and stained with annexin V‐Alexa Fluor 488 for detecting apoptosis following the manufacturer's instruction (FITC Annexin V/Dead Cell Apoptosis Kit; V13241, Invitrogen). Fluorescent responses of annexin V and Texas Red‐labeled dextran were identified by a microscope with a GFP light cube [excitation at 470 (±22) nm and emission at 525 (±50) nm] and a Cy5 light cube [excitation at 628 (±40) nm and emission at 685 (±40) nm], respectively. At least five randomly selected fields per conditions were captured with a microscope. Pearson's correlation coefficient for the indication of co‐localization was calculated with the Coloc2 plugin in Fiji software.^[ [79] ^]

[3] = test system: Iba1‐positive microglial cells in hippocampi of C57BL/6J mice; experiment: Immunohistochemistry of hippocampus after stereotaxic peptide injection, microglia (Iba1); type: in vivo, mouse; conditions: hippocampal injection of Aβ40 (100 µM) and APP‐C31 (200 µM), 1 µL; 10 days; n = 5
Method: 15 neurons were analyzed per each condition. […] Scale bar = 100 µm. […] Scale bar = 200 µm. f) Quantification results of the 6E10‐positive area and Iba1‐positive cells, calculated based on the fluorescence signals.
All experiments were performed in accordance with approved animal protocols and guidelines established by Korea Research Institute of Bioscience and Biotechnology (KRIBB). C57BL/6J (11 weeks old; 30 g) were anesthetized by the intraperitoneal injection of tribromoethanol (320 mg kg^−1, i.p.) and positioned in a stereotaxic apparatus. […] All infusions were given using a Hamilton syringe equipped with a 26‐gauge beveled needle and attached to a Nanojet stereotaxic syringe pump (Chemyx, Inc., TX, USA). Infusions were delivered at a rate of 0.2 µL min^−1. […]
Mice were perfused with phosphate‐buffered saline (GIBCO) and 4% paraformaldehyde (PFA) solution, and then the brains were post‐fixed with 4% PFA overnight and dehydrated with 30% sucrose solution. […] Immunofluorescence staining was performed as previously described^[ [83] ^] using anti‐Aβ antibody (6E10; 1:1,000), anti‐APP antibody (Y188; 1:500), anti‐Iba1 antibody (1:1,000, Wako Life Sciences Inc., Japan), an appropriate fluorescence‐conjugated secondary antibody, and Hoechst 33 258 (1:10,000; Life Technologies, CA, USA) for counterstaining. […]

SH‐SY5Y cells [4] = experiment: Cell viability after microinjection
Method: as §1
Experiments were performed at least in triplicate.

[5] = test system: human neurons differentiated from H9 human embryonic stem cells; experiment: Neurite outgrowth in human neurons; type: cell-based
Method: Human neurons were differentiated from neural progenitor cells (NPCs), which are derived from human embryonic stem cells (hESCs), WA09 (also known as H9). hESCs were maintained on inactivated mouse embryonic fibroblasts (MEFs) in hESC‐media comprising DMEM/F12 (GIBCO) with MEM non‐essential amino acids (MEM NEAA; GIBCO), sodium bicarbonate (14 mM; Sigma‐Aldrich), L‐glutamine (1 mM; Sigma‐Aldrich), β‐mercaptoethanol (100 µM; Merck Millipore, Billerica, MA, USA), knockout serum replacement (20% v/v; GIBCO), and bFGF (10 ng mL^−1; R&D systems, McKinley Place, MN, USA). MEFs were collected from E13.5 CrljOri:CD1 (ICR) mice (Orientbio, Seongnam, Republic of Korea) and inactivated with 10 µg mL^−1 of mitomycin C (AG Scientific, San Diego, CA, USA) in 2 h. hESC colonies were dissociated with Collagenase IV and plated onto Petri dishes in hESC‐media to form embryoid bodies (EBs). […] The treatment was continued for a week, followed by plating onto growth factor reduced matrigel (BD biosciences)‐coated dishes in DMEM/F12 + glutamax (GIBCO) with N2 and B27 supplements (N2/B27 media) and laminin (1 mg mL^−1; GIBCO). […]
Human NPCs were differentiated into neurons for 2 d and the media was replaced by fresh media. […] The neurite of a neuron measured from the soma to the tip was analyzed using Neuron J program of Fiji software.^[ [81] ^]

[6] = APP‐C31 (10 µM) or Aβ40 (10 µM) alone

T1 sequence (P05067 672-711): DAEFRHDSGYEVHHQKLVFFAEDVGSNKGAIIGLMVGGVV

## AAVTPEERHLSKMQQNGYENPTYKFFEQMQN [APP‐C31]
Aβ40
  Kd: 150 µM
[1]
  6E10‐positive area vs Aβ40 alone: significantly enhanced
SH‐SY5Y cells [2]; [6]
  green fluorescence of annexin V: did not significantly show the green fluorescence of annexin V
  Pearson's coefficient (r), annexin V / Texas Red‐labeled dextran: ≈ 0.2
SH‐SY5Y cells [2]; both APP‐C31 (10 µM) and Aβ40 (10 µM)
  green fluorescence of annexin V: intense green fluorescence of annexin V
SH‐SY5Y cells [2]; both APP‐C31 (10 µM) and Aβ40 (10 µM), **p < 0.01
  Pearson's coefficient (r), annexin V / Texas Red‐labeled dextran: ≈ 0.6
[3]
  number of Iba1‐positive microglial cells vs Aβ40 only: 3.7 fold
SH‐SY5Y cells [4]; 10 µM
  cell viability: 86%
SH‐SY5Y cells [4]; Cu(II)–Aβ40 (10 µM) with APP‐C31 (10 µM), 24 h, n = 3–5
  cell viability: 78%
[5]; Aβ40 20 µM with stoichiometric or suprastoichiometric APP‐C31, 24 h
  averaged neurite length: further decreased
[5]; Aβ40 20 µM with various concentrations of APP‐C31, 72 h
  neurite morphology: fragmentation of neurites
